From US11091509B2, “HPPK inhibitors useful as antibacterial agents” (priority 2016, dated 2021)
pKd: −log10 of the molar value. Like-named read-outs stand apart in the source and are kept apart here.

Target: HPPK (Escherichia coli, UniProt P26281)
Assay: HPPK binding study by fluorometric titration (Kd)
Conditions: for affinity compared with previously known HPPK inhibitors: comparison in words
Procedure: Binding studies were carried out at room temperature. Protein (HPPK) and ligand stock solutions were made in 100 mM Tris-HCl, pH 8.3, and their concentrations were determined spectrophotometrically using the following extinction coefficients: 21600 M^−1 cm^−1 at 280 nm for HPPK and 7124 M^−1 cm^−1 at 380 nm for the tetrahydropteridine bisubstrate inhibitors of Formula I. A 3-mL dilute inhibitor solution in a fluorometric cuvette was titrated with the protein stock solution. Fluorescence was measured on a Horiba Jobin Yvon FluoroMax-4 fluorometer. The excitation wavelength and slit were 364-380 and 2-3 nm, respectively, and the emission wavelength and slit were 450-482 and 2-5 nm, respectively. […] For these HPPK preparations, a control experiment, in which a 3-mL buffer solution was titrated with the protein solution, was performed. The control data was subtracted from the titration data. The corrected titration data was then analyzed by nonlinear least-squares regression using the software Origin and the equation: […]
where Fobs is the observed fluorescence, εf and εb are the fluorescence coefficients of the ligand in the free and protein-bound states, respectively, Lt is the total concentration of the ligand, and Et is the total concentration of HPPK. Lt and Et were varied during the titration process according to the following expressions:
where E0 is the concentration of the HPPK stock solution, L0 is the initial concentration of the ligand, V0 is the initial volume of the titration, and ΔV is the total volume of the added HPPK solution.

[1] = room temperature, 100 mM Tris-HCl pH 8.3, inhibitor titrated with HPPK, fluorescence, nonlinear least-squares analysis, read-out: Kd

Sequence of HPPK (P26281 whole entry): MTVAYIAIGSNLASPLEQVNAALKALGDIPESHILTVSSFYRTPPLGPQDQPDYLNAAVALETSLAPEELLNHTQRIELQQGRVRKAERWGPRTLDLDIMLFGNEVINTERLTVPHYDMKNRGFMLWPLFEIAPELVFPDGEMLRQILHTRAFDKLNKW

SMILES | pKd [1] | pKd | affinity compared with previously known HPPK inhibitors
CC1(C)Nc2nc(N)[nH]c(=O)c2N=C1C(=O)NC1CCN(CCSC[C@H]2O[C@@H](n3cnc4c(N)ncnc43)[C@H](O)[C@@H]2O)CC1 [Compound 101, 2-amino-N-(1-(2-((((2S,3S,4R,5R)-5-(6-amino-9H-purin-9-yl)-3,4-dihydroxytetrahydrofuran-2-yl)methyl)thio)ethyl)piperidin-4-yl)-7,7-dimethyl-4-oxo-3,4,7,8-tetrahydropteridine-6-carboxamide] | 4.94 | – | –
CC1(C)Nc2nc(N)[nH]c(=O)c2N=C1C(=O)NCC(=O)N(CC(=O)NC[C@H]1O[C@@H](n2cnc3c(N)ncnc32)C(O)C1O)CP(=O)(O)O (stereo partly shown) [Compound 114] | – | 5.74 | significantly higher
CC1(C)Nc2nc(N)[nH]c(=O)c2N=C1C(=O)NCCN(CC(=O)NC[C@H]1O[C@@H](n2cnc3c(N)ncnc32)C(O)C1O)CP(=O)(O)O (stereo partly shown) [Compound 115] | – | 5.54 | –
CC1(C)Nc2nc(N)[nH]c(=O)c2N=C1C(=O)NCCN(CCSC[C@H]1O[C@@H](n2cnc3c(N)ncnc32)[C@H](O)[C@@H]1O)CP(=O)(O)O [Compound 118, (((2-(2-amino-7,7-dimethyl-4-oxo-3,4,7,8-tetrahydropteridine-6-carboxamido)ethyl)(2-((((2S,3S,4R,5R)-5-(6-amino-9H-purin-9-yl)-3,4-dihydroxytetrahydrofuran-2-yl)methyl)thio)ethyl)amino)methyl)phosphonic acid] | – | 6.40 | significantly higher
CC1(C)Nc2nc(N)[nH]c(=O)c2N=C1C(=O)NCCN1CC[C@@H](SC[C@H]2O[C@@H](n3cnc4c(N)ncnc43)[C@H](O)[C@@H]2O)C[C@@H]1C(=O)O [Compound 120, (2R,4R)-1-(2-(2-amino-7,7-dimethyl-4-oxo-3,4,7,8-tetrahydropteridine-6-carboxamido)ethyl)-4-((((2S,3S,4R,5R)-5-(6-amino-9H-purin-9-yl)-3,4-dihydroxytetrahydrofuran-2-yl)methyl)thio)piperidine-2-carboxylic acid] | 6.52 | – | –
